Results taken from patent publication US6869929B2, “Use of transcription factors for treating inflammation and other diseases” (Beth Israel Deaconess Medical Center, priority 2000, dated 2005).

What was measured:
Format in all cases: cell-based, human
ESE-1 promoter = ESE-1 promoter luciferase construct (pXP2/ESE-1) transfection; details: U-138 MG cells; 16 h
Method: Cotransfections of 3-8×10^5 cells were carried out with 600 ng reporter gene construct DNA and 200 ng expression vector DNA using LipofectAMINE PLUS (Gibco-BRL) for 16 hours as described (Oettgen, P., et al. et al., 1997, Mol Cell Biol 17:4419-33). Transfections were performed independently in duplicate and repeated 3 to 4 times with different plasmid preparations with similar results.
To investigate the molecular mechanism by which IL-1 β and LPS regulate ESE-1 expression, we examined the response of an ESE-1 promoter luciferase construct after transfection using two cytokine responsive non-epithelial cell types, U-138 MG human glial cells and RAW 264.7 cells, a murine macrophage cell line (Oettgen, P., et al. 1999, Genomics 55:358-62). Whereas the parental pXP2 vector was not stimulated by IL-1β, in U-138 MG cells, IL-1β increased ESE-1 promoter activity up to 5-fold (FIG. 12a). Similarly, LPS enhanced ESE-1 promoter activity ˜9-fold in RAW 264.7 cells (FIG. 12b).

ESE-1 [1] = experiment: ESE-1 mRNA RT-PCR in glioma cells (U-138 MG, U-373 MG); details: U-138 MG and U-373 MG glioma cells
Method: (§1) U-87 Mg and U-138 Mg (human glioma), THP-1 (human monocytic), RAW 264.7 (murine monocytic), LB-12 (human osteoblast-like large T antigen transformed bone marrow stromal cells), and human chondrocytes were grown and treated with cytokines as described (Apperley, J., et al. 1990. J Bone Mineral Res. 5:S93; Goldring, M. B., et al. 1994. J Clin Invest 94:2307-16; Goldring, S. R., et al. 1983. J Bone Joint Surg 65:575-84; Libermann, T. A., et al. 1987. Embo J. 6:1627-1632).
(§2) cDNAs were generated from 1 μg of total RNA using Ready-To-Go™ You-prime First-Strand Beads (Amersham Pharmacia Biotech Inc). RT-PCR amplifications of 0.1 μg cDNA were carried out using a MJResearch thermal cycler PTC-100 as follows: 5 min at 94° C., 20-37 cycles of 30 sec at 94° C., 30 sec at 56° C., and 30 sec at 72° C., followed by 5 min at 72° C. (Oettgen, P., et al. 2000, J Biol Chem 275:1216-25). The sequences of the human ESE-1 primers and the primers for human GAPDH were as described (Oettgen, P., et al. 1999, J Biol Chem 274:29439-52).
U-138 MG cells were infected with the IκB adenovirus (kindly provided by Fionula Brennan) (Bondeson, J., et al. 1999, Proc Natl Acad Sci U S A 96:5668-73) for 1 hour in serum-free medium using a multiple of infection of 1000. After infection the cells were washed with medium and incubated for 16 hours in DMEM containing 10% fetal calf serum in the absence or presence of IL-1β. […]

ESE-1 [2] = experiment: ESE-1 mRNA RT-PCR in RA synovial fibroblasts; details: 4th passage RA synovial fibroblasts
Method: Tissues from patients with rheumatoid arthritis (RA) were obtained as discarded materials from total joint replacement surgery or synovectomy. RA synovial tissue samples were cultured for the generation of adherent synovial fibroblasts. Dispersed synovial tissues were prepared by a previously published method (Goldring, S. R., et al. 1983. The synovial-like membrane at the bone-cement interface in loose total hip replacements and its proposed role in bone lysis. J Bone Joint Surg 65:575-84). Cells were subjected to 2-4 passages and stimulated with IL-1β (R&D Systems) at 100 pg/ml or with TNF-α (R&D Systems) at 5 ng/ml.
as §2
The synovium in RA is comprised of heterogeneous cell populations including monocyte/macrophages, lymphocytes and synovial fibroblasts. To evaluate whether ESE-1 expression in synovial fibroblasts is regulated by proinflammatory cytokines, 4th passage synovial fibroblasts isolated from RA synovium were stimulated for different times with IL-1β in the absence or presence of indomethacin. […] They also indicate that cytokine-induced prostaglandins may modulate steady state ESE-1 mRNA levels. […] We, therefore, focused our attention in further studies on IL-1β.

ESE-1 [3] = experiment: ESE-1 mRNA Northern blot in LB-12 osteoblasts; details: LB-12 cells; 1, 2, 6, 24 hours
Method: as §1
Total RNA was harvested using QIAshreder (Qiagen) and RNeasy® Mini Kit (Quiagen) or Trizol (Gibco BRL). Poly A^+ RNA was prepared with MicroPoly(A) Pure (Ambion). Northern blots (5 μg total RNA) were hybridized using a full length ESE-1 cDNA probe as described (Oettgen, P., et al. et al. 1997, Mol Cell Biol 17:4419-33.).
Osteoblasts, the bone cells responsible for bone formation, represent another connective tissue cell target of inflammatory cytokines in joint disorders (Bogoch, E. R., and E. Moran. 1998, Can J Surg 41:264-71). […] LB-12 cells were incubated for different times in the absence or presence of IL-1β. […] Since the rapid, but transient induction of ESE-1 resembles that of immediate early genes, we tested the effect of the protein synthesis inhibitor cycloheximide which superinduces expression of certain genes due to mRNA stabilization. Cycloheximide alone had no effect, but superinduced IL-1β-mediated ESE-1 mRNA expression (FIG. 11d).

ESE-1 [4] = experiment: ESE-1 mRNA RT-PCR in immortalized chondrocytes T/C28a2, C28/I2, C20/A4; details: T/C28a2, C28/I2 and C20/A4 chondrocytes; 24 hours
Method: as §1, §2
To test the hypothesis that ESE-1 is a mediator of cytokine responses in non-epithelial cell types, we analyzed ESE-1 expression in response to a variety of cytokines in several connective tissue cell types. Immortalized human chondrocytes, T/C28a2, C28/I2, and C20/A4 (Goldring, M. B., et al. 1994, J Clin Invest 94:2307-16), were stimulated with IL-1β, TNF-α and IFN-γ for 24 hours. […] The kinetics of ESE-1 induction was explored in a time course experiment with T/ C28a2 chondrocytes.

COL2A1 = COL2A1 mRNA time course in C-28/I2 chondrocytes; details: by 2 h

IL-1β: interleukin-1 beta, proinflammatory cytokine
increase in ESE-1 promoter activity (ESE-1 promoter): up to 5 fold
ESE-1 expression (ESE-1 [1]): rapidly induced transient expression
ESE-1 mRNA expression, agent alone (ESE-1 [2]): strongly induced transient ESE-1 expression
ESE-1 mRNA expression, agent alone (ESE-1 [3]): rapidly induced
ESE-1 expression (ESE-1 [4]): induced ESE-1 expression in all chondrocyte cell lines
COL2A1 mRNA levels (COL2A1): strongly inhibited
